Data reported in US20190255019A1, “NOVEL DOSAGE REGIMEN” (Biogen MA Inc., priority 2016, published 2019).
Where two headings read alike, the source gives them in different places.

Assays:
[1] = cited from earlier work
Human Nav1.7 = Human Nav1.7 (Homo sapiens, UniProt Q15858); assay: In vitro assay quantifying block of hNav1.7 at mid point inactivation, read at free plasma Cmax; type: biochemical; conditions: at free plasma Cmax of 200 mg bid
Text: In Table 1, free plasma CMax exposures of Example 1 obtained from modelling different dosing regimens were used to quantify the resulting amount of block at the primary target hNaV1.7. […] Doses of marketed drugs used in trigeminal neuralgia were compared using the same paradigm.

trigeminal neuralgia = conditions: 200 mg bid, TN; cited from earlier work

Sequence of Human Nav1.7 (Q15858 whole entry): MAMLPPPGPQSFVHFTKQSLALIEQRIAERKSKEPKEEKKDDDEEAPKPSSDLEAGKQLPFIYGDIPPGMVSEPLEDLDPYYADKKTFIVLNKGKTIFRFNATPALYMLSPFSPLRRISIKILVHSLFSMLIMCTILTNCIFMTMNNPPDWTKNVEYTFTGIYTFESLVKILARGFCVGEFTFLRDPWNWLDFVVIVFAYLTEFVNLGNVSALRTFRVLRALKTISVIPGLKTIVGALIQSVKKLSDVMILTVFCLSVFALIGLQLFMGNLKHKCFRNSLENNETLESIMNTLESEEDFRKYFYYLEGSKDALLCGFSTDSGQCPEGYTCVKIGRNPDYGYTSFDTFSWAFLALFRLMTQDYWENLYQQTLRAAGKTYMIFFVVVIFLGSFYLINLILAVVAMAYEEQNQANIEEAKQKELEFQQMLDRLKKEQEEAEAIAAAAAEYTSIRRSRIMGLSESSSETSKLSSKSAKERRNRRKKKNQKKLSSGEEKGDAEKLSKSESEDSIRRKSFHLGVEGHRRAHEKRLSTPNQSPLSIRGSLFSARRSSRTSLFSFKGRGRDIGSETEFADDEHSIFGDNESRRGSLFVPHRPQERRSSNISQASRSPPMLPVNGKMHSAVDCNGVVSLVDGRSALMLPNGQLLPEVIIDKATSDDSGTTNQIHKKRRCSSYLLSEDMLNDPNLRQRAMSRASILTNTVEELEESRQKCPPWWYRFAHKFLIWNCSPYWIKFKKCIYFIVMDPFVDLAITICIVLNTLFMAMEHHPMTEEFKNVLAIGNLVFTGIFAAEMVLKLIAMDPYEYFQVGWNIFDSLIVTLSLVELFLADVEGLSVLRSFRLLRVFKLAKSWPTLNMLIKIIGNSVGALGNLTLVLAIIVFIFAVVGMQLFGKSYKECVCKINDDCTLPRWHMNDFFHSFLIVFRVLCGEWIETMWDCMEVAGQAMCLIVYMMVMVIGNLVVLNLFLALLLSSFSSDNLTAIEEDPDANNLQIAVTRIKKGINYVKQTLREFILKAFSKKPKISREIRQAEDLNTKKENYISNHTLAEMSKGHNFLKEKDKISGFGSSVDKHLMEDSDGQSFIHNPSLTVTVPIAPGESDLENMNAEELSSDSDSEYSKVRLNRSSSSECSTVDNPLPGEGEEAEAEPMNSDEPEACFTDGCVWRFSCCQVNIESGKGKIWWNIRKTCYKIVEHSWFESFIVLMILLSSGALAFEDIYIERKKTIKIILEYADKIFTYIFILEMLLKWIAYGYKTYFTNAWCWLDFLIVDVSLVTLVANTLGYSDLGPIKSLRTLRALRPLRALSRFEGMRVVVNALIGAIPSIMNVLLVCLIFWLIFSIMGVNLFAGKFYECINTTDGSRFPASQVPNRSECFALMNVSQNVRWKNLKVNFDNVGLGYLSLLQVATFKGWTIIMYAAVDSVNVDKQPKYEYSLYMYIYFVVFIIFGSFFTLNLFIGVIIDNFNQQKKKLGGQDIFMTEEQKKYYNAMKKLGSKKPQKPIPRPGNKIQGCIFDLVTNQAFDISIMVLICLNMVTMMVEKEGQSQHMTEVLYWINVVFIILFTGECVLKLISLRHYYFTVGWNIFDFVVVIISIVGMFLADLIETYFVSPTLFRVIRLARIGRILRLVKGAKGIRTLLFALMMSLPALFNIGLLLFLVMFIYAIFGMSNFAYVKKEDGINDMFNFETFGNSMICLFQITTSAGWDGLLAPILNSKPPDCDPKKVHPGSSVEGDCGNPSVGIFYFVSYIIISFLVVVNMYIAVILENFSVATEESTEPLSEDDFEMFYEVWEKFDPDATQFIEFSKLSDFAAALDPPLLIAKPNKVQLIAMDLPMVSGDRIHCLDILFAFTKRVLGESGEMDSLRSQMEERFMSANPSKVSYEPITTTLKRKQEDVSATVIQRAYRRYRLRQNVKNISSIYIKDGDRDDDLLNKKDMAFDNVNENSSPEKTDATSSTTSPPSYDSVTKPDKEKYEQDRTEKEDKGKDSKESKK

SMILES	Cmax Free plasma ([1]; Carbamazepine 200 mg qid)	Free fraction ([1]; Carbamazepine 200 mg qid)	Cmax Free plasma ([1]; Lamotrigine 200 mg bid)	Free fraction ([1]; Lamotrigine 200 mg bid)	Human Nav1.7 % Inhibition (Human Nav1.7)	Clinical efficacy (trigeminal neuralgia)
NC(=O)N1c2ccccc2C=Cc2ccccc21 [Carbamazepine]	4 to 12 µM	24%	–	–	–	–
Nc1nnc(-c2cccc(Cl)c2Cl)c(N)n1 [Lamotrigine]	–	–	5.8 µM	44%	6%	NO EFFICACY
